Measurements published in patent US20230173090A1, “COMPOSITIONS AND METHODS FOR MODULATING DOPAMINE RECEPTOR ACTIVITY” (The Regents of the University of California, priority 2020, published 2023).

Tests used:
D1R = target: T1, D1R (Homo sapiens, UniProt P21728); test: D1R-mediated cAMP accumulation assay (BRET sensor CAMYEL) in HEK293T cells; type: cell-based; details: FIGS. 9A-9H
T1 construct: expressed in transfected cells; host or cells: HEK293T (A1, A2); HEK293 (A26)
Description: FIGS. 9A-9H. Functional properties of untethered P-D1ago. (A) Schematic representation of a D1R-mediated G protein-coupled inwardly rectifying potassium (GIRK) channel assay in HEK293T cells. Agonist-induced receptor activation results in the recruitment of a heterotrimeric G protein containing the chimeric Gα subunit (Gαis) followed by the release of Gβγ, which activates GIRK channels and enhances inward-current. […]. (C) Representative traces of the effect of untethered P-D1ago on D1R in the absence of the membrane-anchor (M) according to the GIRK assay. […] (D) Summary of the functional effect of untethered P-D1ago on D1R in the GIRK assay. n = 4-5 cells per condition. (E) Schematic representation of a highly sensitive D1R-mediated cAMP accumulation assay in HEK293T cells. Agonist-induced D1R activation results in Gs/olfrecruitment followed by the binding of its Gα subunit to adenylate cyclase (AC), which enhances the conversion of ATP to cAMP. cAMP binds the bioluminescence resonance energy transfer 1 (BRET′)-based cAMP sensor CAMYEL^87, resulting in a conformational change in its Epac domain that increases the distance and decreases BRET^1 between the donor Renilla luciferase (Rluc) and the acceptor YFP. […]

dStr-dMSN D1Rs = dStr-dMSN D1Rs (Mus musculus, UniProt Q61616); test: Open field test, MP-D1ago in dStr-dMSNs of D1-Cre mice; details: trans-P-D1ago 100 µM, 1 µL bilateral dStr-infusion, mice expressing the M
Chain of dStr-dMSN D1Rs (Q61616 whole entry, the tested form may be a part): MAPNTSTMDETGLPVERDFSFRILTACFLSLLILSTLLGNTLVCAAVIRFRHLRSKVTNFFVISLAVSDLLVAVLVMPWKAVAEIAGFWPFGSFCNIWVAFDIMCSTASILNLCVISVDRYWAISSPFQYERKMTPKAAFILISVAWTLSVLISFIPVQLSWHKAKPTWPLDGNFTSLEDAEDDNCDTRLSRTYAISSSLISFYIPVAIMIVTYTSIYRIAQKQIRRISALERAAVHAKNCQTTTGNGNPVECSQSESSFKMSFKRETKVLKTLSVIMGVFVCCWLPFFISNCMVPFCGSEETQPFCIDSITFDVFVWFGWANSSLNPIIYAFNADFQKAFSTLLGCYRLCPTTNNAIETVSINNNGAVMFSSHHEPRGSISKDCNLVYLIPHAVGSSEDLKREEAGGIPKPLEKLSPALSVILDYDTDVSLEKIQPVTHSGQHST
Description: The mice were 20-30 grams and 8-20 weeks old. […] Mice were maintained on a 12:12 light cycle (lights on at 07:00).
The sub-second velocity traces recorded using Biobserve were smoothed in MATLAB using a first order Butterworth filter (normalized cutoff frequency ωu = 0.02). Using original code written in MATLAB, a velocity threshold was manually set to distinguish movements from tracking artifacts, as verified by visual inspection of each movie. Movement bouts were counted when the velocity surpassed this threshold and lasted for at least 0.3 seconds. Bouts were considered finished after the velocity remained below the manually defined threshold for 0.1 seconds. The percent time moving was calculated as the time that velocity was above the movement threshold divided by the time of the entire measurement. Movement initiation frequency was calculated as the number of times velocity surpassed the movement threshold per second. Movement bout duration was calculated by averaging the duration of all movement bouts that occurred during the entire measurement. Max velocity was calculated by averaging the maximum velocity of all movement bouts that occurred during the entire measurement.

GIRK channels = target: T2, GIRK channels (Homo sapiens, UniProt P48549, F137S); details: 1 µM P-D1ago labeled cells without D1R; % of 3 mM BaCh, a GIRK channel blocker; n = 5 cells
T2 sequence (P48549 1-501 F137S): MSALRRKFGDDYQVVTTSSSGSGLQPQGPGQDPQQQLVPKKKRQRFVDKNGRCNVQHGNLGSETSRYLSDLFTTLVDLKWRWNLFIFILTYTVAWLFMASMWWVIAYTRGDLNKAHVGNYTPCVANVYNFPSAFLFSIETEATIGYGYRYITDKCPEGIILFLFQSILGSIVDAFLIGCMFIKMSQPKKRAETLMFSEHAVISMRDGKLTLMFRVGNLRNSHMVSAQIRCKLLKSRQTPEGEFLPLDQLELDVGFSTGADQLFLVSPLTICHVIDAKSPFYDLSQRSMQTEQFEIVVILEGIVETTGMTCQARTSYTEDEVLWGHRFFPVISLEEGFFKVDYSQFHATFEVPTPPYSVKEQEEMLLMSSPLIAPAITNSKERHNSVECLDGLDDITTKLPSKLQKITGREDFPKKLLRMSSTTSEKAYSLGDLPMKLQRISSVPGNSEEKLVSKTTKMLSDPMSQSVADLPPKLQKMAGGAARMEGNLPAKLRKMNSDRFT

[1] = test system: membrane-anchor (M) (SNAP-tag); test: Labeling of the membrane-anchor (M) at the cell surface: block of BG-Alexa647 binding, imaging and flow cytometry; type: cell-based; details: 1 µM for 1 hour, then 1.5 µM BG-Alexa647 for 30 minutes
Description: Untransfected or membrane-anchor (M) expressing HEK293T cells were labeled with 1.5 µM BG-TMR or BG-Alexa647 (NEB) for 20-30 minutes in the dark at 37° C. and 5% CO2 in a standard extracellular solution. Cells were then (i) mounted on an upright, scanning confocal microscope (Zeiss LSM 780) and imaged with a 20x objective or (ii) washed in DPBS and measured by flow cytometry (BD LSR II).
FIGS. 8A-8D. Photophysical properties of P-D1ago. (A) Absorbance spectra of P-D1ago under blue light (460 nm; blue) and UV light (370 nm; grey). (B) P-D1ago repeatedly switches from its trans to cis isomer with UV light and back to trans with blue light. […] Cells were incubated for 1 hour with vehicle (left upper panels), 1 µM surface block (left middle panels), or 1 µM P-D1ago (left lower panels), and were then labeled for 30 minutes with 1.5 µM BG-Alexa647. Cytosolic tdTomato was used as a transfection marker, grey bar = […]. A summary of labeling according to flow cytometry is shown on the right. unpaired two-sided t-test, p = 0.60. n = 3-6 replicates per condition. (D) M labeling as a function of the concentration of P-D1ago. The M was incubated for 1 hour with increasing concentrations of P-D1ago, and then labeled for 30 minutes with 1.5 µM BG-Alexa647. Labeling was measured by flow cytometry. […] Labeling was measured by flow cytometry. n = 3-4 replicates per condition. […]

T1 sequence (P21728 whole entry): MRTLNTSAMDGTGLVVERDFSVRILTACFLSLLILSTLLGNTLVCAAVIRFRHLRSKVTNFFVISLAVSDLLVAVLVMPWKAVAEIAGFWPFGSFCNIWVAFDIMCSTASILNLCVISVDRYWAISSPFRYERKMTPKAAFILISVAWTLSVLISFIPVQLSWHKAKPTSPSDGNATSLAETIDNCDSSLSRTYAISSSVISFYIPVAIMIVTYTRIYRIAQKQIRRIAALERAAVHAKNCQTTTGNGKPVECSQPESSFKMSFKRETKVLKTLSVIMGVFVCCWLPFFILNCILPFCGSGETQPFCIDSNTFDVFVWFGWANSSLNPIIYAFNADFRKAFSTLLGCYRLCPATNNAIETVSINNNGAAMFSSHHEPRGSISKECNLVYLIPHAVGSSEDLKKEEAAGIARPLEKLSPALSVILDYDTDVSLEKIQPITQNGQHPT

What does the source list for `CCCN(CCc1ccc(N=Nc2ccc(NC(=O)CNC(=O)CCOCCOCCOCCOCCOCCOCCOCCOCCOCCOCCOCCOCCn3cc(CCC(=O)NCc4ccc(COc5nc(N)nc6nc[nH]c56)cc4)nn3)cc2)cc1)C1CCc2c(O)cccc2C1` (stereo not shown) [P-D1ago, Benzylguanine-azobenzene-PPHT]?
agonist profile at D1R in untethered form (D1R): low potency full agonist; persistence of increased motor activity (dStr-dMSN D1Rs): remained high for many hours; return of motor activity to baseline (dStr-dMSN D1Rs): returned to baseline over a two-day period; time to increase of motor activity after start of infusion (dStr-dMSN D1Rs; dark): ≤ 30 min; effect of switching from UV light to blue light on basal current (GIRK channels): 1.3 ± 1.0%; binding to the M at the cell surface (block of BG-Alexa647 binding) [1]: almost completely; binding to the M at the cell surface (block of BG-Alexa647 binding) ([1]; listed as P-Dlago): binds efficiently
